Columns and labels:
[1] = Example 3C: solubility of 30% permethrin in d-limonene/propylene glycol monomethyl ether mixtures at -15° C.; assay type: physicochemical; conditions: initial 30% permethrin
Method: The temperature was regulated to −15° C. The solutions were placed in the bath and allowed to crystallize and reach equilibrium.

[2] = Example 3D: solubility of permethrin in propylene glycol monomethyl ether at 20° C. after crystallization at 0° C.; assay type: physicochemical
Method: The solution was placed in the bath, and continually stirred. The bath temperature was lowered to 0° C. After crystallization occurred in the solution, the bath temperature setting was raised to 20° C. and the stirred slurry was allowed to equilibrate over a three-day period. After this time, samples of the supernatant were pulled on consecutive days. The crystals were separated from the liquid layer by filtration, and the crystals were washed with petroleum ether. […] The crystals were washed to remove any residual solution that might contaminant their analysis.

[3] = Example 3A: relative solubility of permethrin in neat solvents, seeded solutions in cold bath, supernatant assayed
Method: (§1) These solutions were poured into 100 mL tubes with screw top caps. These tubes were placed in the cold water bath and allowed to come to equilibrium at the temperature of the bath. […] The seeded preparations were then thoroughly shaken, replaced in the bath and allowed to remain in the bath for a 24 hour period. The preparations were then examined for crystallization, then again thoroughly agitated and replaced in the bath for an additional time period. Samples of the supernatant were removed after additional crystallization had occurred.
After 24 hours the tubes were examined for the relative amount of crystallization that may have occurred in each of the solutions. Where crystallization had occurred, samples of the supernatant were pulled from the vials and the temperature of the bath was lowered to 15° C.
Samples were again taken for assay from the solutions of hexylene glycol and methyl Carbitol® (diethylene glycol monomethyl ether).

[4] = Example 3B: solubility of permethrin in PM (propylene glycol monomethyl ether), DM (diethylene glycol monomethyl ether) and PM or DPM (dipropylene glycol monomethyl ether)/d-limonene mixtures at low temperatures, seeded
Method: as §1
The solvent mixtures tested were: dipropylene glycol monomethyl ether/d-limonene and propylene glycol monomethyl ether/d-limonene.
These solvent mixtures were evaluated at ratios of 2:1, 1:1, 1:2, and then at 8:2 and 9:1 (the first number refers to one of the glycol ethers, the second number refers to d-limonene).

[5] = Diethylene Glycol Monomethyl Ether, Initial
[6] = Dipropylene Glycol Monomethyl Ether, Initial
[7] = Propylene Glycol Monomethyl Ether, Initial

CC1(C)C(C=C(Cl)Cl)C1C(=O)OCc1cccc(Oc2ccccc2)c1 (centres unmarked) [permethrin]
% permethrin in solution ([1]; 0% d-limonene in formula): 23.57%
% permethrin in solution ([1]; 20% d-limonene in formula): 24.78%
% permethrin in solution ([1]; 33% d-limonene in formula): 25.52%
% permethrin in solution ([1]; 50% d-limonene in formula): 27.20%
% permethrin in solution ([1]; 67% d-limonene in formula): 27.51%
% permethrin in solution ([1]; 100% d-limonene in formula): 25.93%
% Permethrin ([2]; Assay of Crystals (filtered, washed), as the cis isomer): 100% as the cis isomer
% Permethrin ([2]; Initial Assay of 70% Solution in propylene glycol monomethyl ether): 72.86%
solubility of permethrin ([2]; in propylene glycol monomethyl ether, 20° C.): greater than 70%
% Permethrin ([2]; supernatant, propylene glycol monomethyl ether, 20° C., 2nd Day after Equilibrium Reached): 72.96%
% Permethrin ([2]; supernatant, propylene glycol monomethyl ether, 20° C., Assay after Equilibrium Reached): 72.93%
Permethrin ([3]; Diethylene Glycol Monomethyl Ether, 20° C.): 75.02%
Permethrin ([3]; Diethylene Glycol Monomethyl Ether, 25° C.): 74.90%
Cis Isomer [3, 5]: 28.79%
Permethrin [3, 5]: 69.70%
Trans Isomer [3, 5]: 40.91%
Permethrin ([3]; Diethylene Glycol Monomethyl Ether, […] C.): 74.44%
Permethrin ([3]; Dipropylene Glycol Monomethyl Ether, 15° C.): 73.83%
Permethrin ([3]; Dipropylene Glycol Monomethyl Ether, 20° C.): 75.15%
Permethrin ([3]; Dipropylene Glycol Monomethyl Ether, 25° C.): 75.39%
Cis Isomer [3, 6]: 29.41%
Permethrin [3, 6]: 70.35%
Trans Isomer [3, 6]: 40.94%
solubility among the tested solvents ([3]; Examples 3A-3D, low temperatures, order: d-limonene, PM, DPM, diethylene glycol monomethyl ether, hexylene glycol): greatest solubility in d-limonene
Permethrin ([3]; Hexylene Glycol, 25° C.): 75.02%
Cis Isomer ([3]; Hexylene Glycol, Initial): 29.77%
Permethrin ([3]; Hexylene Glycol, Initial): 71.09%
Trans Isomer ([3]; Hexylene Glycol, Initial): 41.32%
Permethrin ([3]; Hexylene Glycol, […] C.): 74.37%
Permethrin ([3]; Propylene Glycol Monomethyl Ether, 15° C.): 74.85%
Permethrin ([3]; Propylene Glycol Monomethyl Ether, 20° C.): 74.84%
Permethrin ([3]; Propylene Glycol Monomethyl Ether, 25° C.): 75.66%
Cis Isomer [3, 7]: 29.55%
Permethrin [3, 7]: 70.78%
Trans Isomer [3, 7]: 40.22%
Permethrin ([3]; d-limonene, 20° C.): 74.84%
Permethrin ([3]; d-limonene, 25° C.): 75.29%
Cis Isomer ([3]; d-limonene, Initial): 29.54%
Permethrin ([3]; d-limonene, Initial): 70.43%
Trans Isomer ([3]; d-limonene, Initial): 40.89%
% Total Permethrin ([4]; 65% permethrin in DPM/d-limonene, 0% d-limonene of solvent mixture, 0° C.): 58.25%
% Total Permethrin ([4]; 65% permethrin in DPM/d-limonene, 0% d-limonene of solvent mixture, 5° C.): 60.53%
% Total Permethrin ([4]; 65% permethrin in DPM/d-limonene, 10% d-limonene of solvent mixture, 10° C.): 61.42%
% Total Permethrin ([4]; 65% permethrin in DPM/d-limonene, 20% d-limonene of solvent mixture, 10° C.): 63.46%
% Total Permethrin ([4]; 65% permethrin in DPM/d-limonene, 33% d-limonene of solvent mixture, 0° C.): 61.65%
% Total Permethrin ([4]; 65% permethrin in DPM/d-limonene, 33% d-limonene of solvent mixture, 5° C.): 63.92%
% Total Permethrin ([4]; 65% permethrin in DPM/d-limonene, 33% d-limonene of solvent mixture, 10° C.): 64.93%
% Total Permethrin ([4]; 65% permethrin in DPM/d-limonene, 50% d-limonene of solvent mixture, 0° C.): 61.55%
% Total Permethrin ([4]; 65% permethrin in DPM/d-limonene, 50% d-limonene of solvent mixture, 5° C.): 64.83%
% Total Permethrin ([4]; 65% permethrin in DPM/d-limonene, 50% d-limonene of solvent mixture, 10° C.): 64.30%
% Total Permethrin ([4]; 65% permethrin in DPM/d-limonene, 67% d-limonene of solvent mixture, 0° C.): 61.33%
% Total Permethrin ([4]; 65% permethrin in DPM/d-limonene, 67% d-limonene of solvent mixture, 5° C.): 65.55%
% Total Permethrin ([4]; 65% permethrin in DPM/d-limonene, 67% d-limonene of solvent mixture, 10° C.): 64.92%
% Total Permethrin ([4]; 65% permethrin in DPM/d-limonene, 100% d-limonene of solvent mixture, 0° C.): 60.27%
% Total Permethrin ([4]; 65% permethrin in DPM/d-limonene, 100% d-limonene of solvent mixture, 5° C.): 62.73%
% Total Permethrin ([4]; 65% permethrin in DPM/d-limonene, 100% d-limonene of solvent mixture, 10° C.): 65.88%
% Total Permethrin ([4]; 65% permethrin in PM/d-limonene, 0% d-limonene of solvent mixture, 0° C.): 52.65%
% Total Permethrin ([4]; 65% permethrin in PM/d-limonene, 0% d-limonene of solvent mixture, 5° C.): 59.51%
% Total Permethrin ([4]; 65% permethrin in PM/d-limonene, 10% d-limonene of solvent mixture, 10° C.): 62.08%
% Total Permethrin ([4]; 65% permethrin in PM/d-limonene, 20% d-limonene of solvent mixture, 10° C.): 64.35%
% Total Permethrin ([4]; 65% permethrin in PM/d-limonene, 33% d-limonene of solvent mixture, 0° C.): 59.42%
% Total Permethrin ([4]; 65% permethrin in PM/d-limonene, 33% d-limonene of solvent mixture, 5° C.): 63.08%
% Total Permethrin ([4]; 65% permethrin in PM/d-limonene, 33% d-limonene of solvent mixture, 10° C.): 63.89%
% Total Permethrin ([4]; 65% permethrin in PM/d-limonene, 50% d-limonene of solvent mixture, 0° C.): 61.74%
% Total Permethrin ([4]; 65% permethrin in PM/d-limonene, 50% d-limonene of solvent mixture, 5° C.): 64.05%
% Total Permethrin ([4]; 65% permethrin in PM/d-limonene, 50% d-limonene of solvent mixture, 10° C.): 64.45%
% Total Permethrin ([4]; 65% permethrin in PM/d-limonene, 67% d-limonene of solvent mixture, 0° C.): 61.45%
% Total Permethrin ([4]; 65% permethrin in PM/d-limonene, 67% d-limonene of solvent mixture, 5° C.): 64.86%
